Measured values as given in patent US9290777B2, “Putative cytokinin receptor and methods for use thereof” (NATIONAL UNIVERSITY OF SINGAPORE, priority 2007, dated 2016).

Test system: ARR4
Test: qRT-PCR of cytokinin responsive gene after BA pulse, fold change vs untreated wild type
Assay type: cell-based, Arabidopsis thaliana
Description: For quantitative real-time PCR (qRT-PCR) analysis of cytokinin-inducible gene expression, seeds were germinated on MS medium with 3% (w/v) sucrose and grown for 6 days. Cytokinin treatment was carried out by incubating seedlings in the same MS+sucrose liquid medium (no agar) supplemented with 0, 0.01, 0.1, 1 or 5 μM [solubilized in 0.1% dimethylsulfoxide (DMSO) and diluted with the MS medium] for 5 min, 15 min, 30 min or 1 h. The control seedlings were incubated with DMSO (0.1%, the concentration used to dissolve cytokinins for the treatment) for the corresponding durations and used for expression analysis. Before RNA preparation, WT, OE and AS seedlings were pooled and stored in RNAlater solution (Qiagen, Valencia, Calif.). Total RNA was extracted using the Rneasy Plant Mini Kit (Qiagen). SYBRgreen RT-PCR reagents (Applied Biosystems) were used to synthesize double-stranded cDNA. The number of transcripts present in biological replicates each of WT, OE and AS seedlings, with or without BA and DMSO, was determined from three independent replicates. Fold induction of the transcripts was calculated according to the manufacturer's instructions (ABI Prism 7700 Sequence Detection System, User Bulletin #2).

Which results are given for `c1ccc(CNc2ncnc3nc[nH]c23)cc1` [benzyladenine]?
ARR4 fold change (BA 0.01 μM, 5 min, AS1, ↑ up): 4.12↑; ARR4 fold change (BA 0.01 μM, 5 min, AS8, ↑ up): 6.1↑; ARR4 fold change (BA 0.01 μM, 5 min, AS21, ↑ up): 8.01↑; ARR4 fold change (BA 0.01 μM, 5 min, OE1, ↓ down): 5.01↓; ARR4 fold change (BA 0.01 μM, 5 min, OE12, ↓ down): 5.87↓; ARR4 fold change (BA 0.01 μM, 5 min, OE18, ↓ down): 7.56↓; ARR4 fold change (BA 0.01 μM, 5 min, Wild type, ↑ up): 3.13↑; ARR4 fold change (BA 0.01 μM, 15 min, AS1, ↑ up): 4.57↑; ARR4 fold change (BA 0.01 μM, 15 min, AS8, ↑ up): 6.41↑; ARR4 fold change (BA 0.01 μM, 15 min, AS21, ↑ up): 8.39↑; ARR4 fold change (BA 0.01 μM, 15 min, OE1, ↓ down): 4.66↓; ARR4 fold change (BA 0.01 μM, 15 min, OE12, ↓ down): 5.56↓; ARR4 fold change (BA 0.01 μM, 15 min, OE18, ↓ down): 7.32↓; ARR4 fold change (BA 0.01 μM, 15 min, Wild type, ↑ up): 3.67↑; ARR4 fold change (BA 0.01 μM, 30 min, AS1, ↑ up): 4.98↑; ARR4 fold change (BA 0.01 μM, 30 min, AS8, ↑ up): 6.86↑; ARR4 fold change (BA 0.01 μM, 30 min, AS21, ↑ up): 8.53↑; ARR4 fold change (BA 0.01 μM, 30 min, OE1, ↓ down): 4.41↓; ARR4 fold change (BA 0.01 μM, 30 min, OE12, ↓ down): 5.13↓; ARR4 fold change (BA 0.01 μM, 30 min, OE18, ↓ down): 7.13↓; ARR4 fold change (BA 0.01 μM, 30 min, Wild type, ↑ up): 3.98↑; ARR4 fold change (BA 0.01 μM, 1 h, AS1, ↑ up): 5.2↑; ARR4 fold change (BA 0.01 μM, 1 h, AS8, ↑ up): 6.98↑; ARR4 fold change (BA 0.01 μM, 1 h, AS21, ↑ up): 8.99↑; ARR4 fold change (BA 0.01 μM, 1 h, OE1, ↓ down): 4.01↓; ARR4 fold change (BA 0.01 μM, 1 h, OE12, ↓ down): 4.06↓; ARR4 fold change (BA 0.01 μM, 1 h, OE18, ↓ down): 6.98↓; ARR4 fold change (BA 0.01 μM, 1 h, Wild type, ↑ up): 4.15↑; ARR4 fold change (BA 0.1 μM, 5 min, AS1, ↑ up): 5.14↑; ARR4 fold change (BA 0.1 μM, 5 min, AS8, ↑ up): 7.12↑; ARR4 fold change (BA 0.1 μM, 5 min, AS21, ↑ up): 9.11↑; ARR4 fold change (BA 0.1 μM, 5 min, OE1, ↓ down): 4.56↓; ARR4 fold change (BA 0.1 μM, 5 min, OE12, ↓ down): 4.91↓; ARR4 fold change (BA 0.1 μM, 5 min, OE18, ↓ down): 6.89↓; ARR4 fold change (BA 0.1 μM, 5 min, Wild type, ↑ up): 4.36↑; ARR4 fold change (BA 0.1 μM, 15 min, AS1, ↑ up): 5.39↑; ARR4 fold change (BA 0.1 μM, 15 min, AS8, ↑ up): 7.32↑; ARR4 fold change (BA 0.1 μM, 15 min, AS21, ↑ up): 9.26↑; ARR4 fold change (BA 0.1 μM, 15 min, OE1, ↓ down): 4.24↓; ARR4 fold change (BA 0.1 μM, 15 min, OE12, ↓ down): 4.71↓; ARR4 fold change (BA 0.1 μM, 15 min, OE18, ↓ down): 4.72↓; ARR4 fold change (BA 0.1 μM, 15 min, Wild type, ↑ up): 4.58↑; ARR4 fold change (BA 0.1 μM, 30 min, AS1, ↑ up): 5.69↑; ARR4 fold change (BA 0.1 μM, 30 min, AS8, ↑ up): 7.57↑; ARR4 fold change (BA 0.1 μM, 30 min, AS21, ↑ up): 9.48↑; ARR4 fold change (BA 0.1 μM, 30 min, OE1, ↓ down): 4.12↓; ARR4 fold change (BA 0.1 μM, 30 min, OE12, ↓ down): 4.59↓; ARR4 fold change (BA 0.1 μM, 30 min, OE18, ↓ down): 4.36↓; ARR4 fold change (BA 0.1 μM, 30 min, Wild type, ↑ up): 4.89↑; ARR4 fold change (BA 0.1 μM, 1 h, AS1, ↑ up): 5.98↑; ARR4 fold change (BA 0.1 μM, 1 h, AS8, ↑ up): 7.99↑; ARR4 fold change (BA 0.1 μM, 1 h, AS21, ↑ up): 9.83↑; ARR4 fold change (BA 0.1 μM, 1 h, OE1, ↓ down): 3.96↓; ARR4 fold change (BA 0.1 μM, 1 h, OE12, ↓ down): 4.21↓; ARR4 fold change (BA 0.1 μM, 1 h, OE18, ↓ down): 4.01↓; ARR4 fold change (BA 0.1 μM, 1 h, Wild type, ↑ up): 4.99↑; ARR4 fold change (BA 1.0 μM, 5 min, AS1, ↑ up): 6.43↑; ARR4 fold change (BA 1.0 μM, 5 min, AS8, ↑ up): 8.01↑; ARR4 fold change (BA 1.0 μM, 5 min, AS21, ↑ up): 9.93↑; ARR4 fold change (BA 1.0 μM, 5 min, OE1, ↓ down): 3.76↓; ARR4 fold change (BA 1.0 μM, 5 min, OE12, ↓ down): 4.19↓; ARR4 fold change (BA 1.0 μM, 5 min, OE18, ↓ down): 3.36↓; ARR4 fold change (BA 1.0 μM, 5 min, Wild type, ↑ up): 5.1↑; ARR4 fold change (BA 1.0 μM, 15 min, AS1, ↑ up): 6.68↑; ARR4 fold change (BA 1.0 μM, 15 min, AS8, ↑ up): 8.43↑; ARR4 fold change (BA 1.0 μM, 15 min, AS21, ↑ up): 10.02↑; ARR4 fold change (BA 1.0 μM, 15 min, OE1, ↓ down): 3.51↓; ARR4 fold change (BA 1.0 μM, 15 min, OE12, ↓ down): 4.01↓; ARR4 fold change (BA 1.0 μM, 15 min, OE18, ↓ down): 3.21↓; ARR4 fold change (BA 1.0 μM, 15 min, Wild type, ↑ up): 5.31↑; ARR4 fold change (BA 1.0 μM, 30 min, AS1, ↑ up): 6.73↑; ARR4 fold change (BA 1.0 μM, 30 min, AS8, ↑ up): 8.69↑; ARR4 fold change (BA 1.0 μM, 30 min, AS21, ↑ up): 10.35↑; ARR4 fold change (BA 1.0 μM, 30 min, OE1, ↓ down): 3.29↓; ARR4 fold change (BA 1.0 μM, 30 min, OE12, ↓ down): 3.89↓; ARR4 fold change (BA 1.0 μM, 30 min, OE18, ↓ down): 3.01↓; ARR4 fold change (BA 1.0 μM, 30 min, Wild type, ↑ up): 5.59↑; ARR4 fold change (BA 1.0 μM, 1 h, AS1, ↑ up): 7.01↑; ARR4 fold change (BA 1.0 μM, 1 h, AS8, ↑ up): 8.93↑; ARR4 fold change (BA 1.0 μM, 1 h, AS21, ↑ up): 10.76↑; ARR4 fold change (BA 1.0 μM, 1 h, OE1, ↓ down): 3.01↓; ARR4 fold change (BA 1.0 μM, 1 h, OE12, ↓ down): 3.56↓; ARR4 fold change (BA 1.0 μM, 1 h, OE18, ↓ down): 2.92↓; ARR4 fold change (BA 1.0 μM, 1 h, Wild type, ↑ up): 5.87↑; ARR4 fold change (BA 5.0 μM, 5 min, AS1, ↑ up): 6.98↑; ARR4 fold change (BA 5.0 μM, 5 min, AS8, ↑ up): 8.98↑; ARR4 fold change (BA 5.0 μM, 5 min, AS21, ↑ up): 10.43↑; ARR4 fold change (BA 5.0 μM, 5 min, OE1, ↓ down): 3.19↓; ARR4 fold change (BA 5.0 μM, 5 min, OE12, ↓ down): 3.87↓; ARR4 fold change (BA 5.0 μM, 5 min, OE18, ↓ down): 2.45↓; ARR4 fold change (BA 5.0 μM, 5 min, Wild type, ↑ up): 6.52↑; ARR4 fold change (BA 5.0 μM, 15 min, AS1, ↑ up): 7.01↑; ARR4 fold change (BA 5.0 μM, 15 min, AS8, ↑ up): 9.07↑; ARR4 fold change (BA 5.0 μM, 15 min, AS21, ↑ up): 10.54↑; ARR4 fold change (BA 5.0 μM, 15 min, OE1, ↓ down): 3.01↓; ARR4 fold change (BA 5.0 μM, 15 min, OE12, ↓ down): 3.62↓; ARR4 fold change (BA 5.0 μM, 15 min, OE18, ↓ down): 2.18↓; ARR4 fold change (BA 5.0 μM, 15 min, Wild type, ↑ up): 6.69↑; ARR4 fold change (BA 5.0 μM, 30 min, AS1, ↑ up): 7.23↑; ARR4 fold change (BA 5.0 μM, 30 min, Wild type, ↑ up): 6.89↑
